Data as given in ChEMBL document CHEMBL3244027, “Syntheses, analgetic activity, and physical dependence capacity of 5-phenyl-6,7-benzomorphan derivatives” (J Med Chem, 1979).
Activity calls are given as the source filed them. The calls are words filed in the database; no cut-off is given here.

How the values were obtained:
[1] = test system: Mus musculus; experiment: Analgetic activity in sc dosed CF1S mouse assessed as writhing by phenylquinone writhing test; assay type: functional
[2] = test system: Mus musculus; experiment: Analgetic activity in po dosed CF1S mouse assessed as writhing by phenylquinone writhing test; assay type: functional
[3] = test system: Mus musculus; experiment: Analgetic activity against CF-1 mouse assessed as increase in reaction time at 320 mg/kg, po by heat stimulus induced tail flick response assay; assay type: functional, organism-based; design: dose 320 mg/kg
[4] = Mus musculus, CF1S, sc, read-out: ED50
[5] = Mus musculus, CF1S, po, read-out: ED50

Compound	ED50 [1, 4] [mg/kg]	also measured
CC(C)=CCN1CCC2(c3ccccc3)c3cc(O)ccc3CC1C2C.Cl (stereo in doubt; 207)	39	
CC1C2Cc3ccc(O)cc3C1(c1ccccc1)CCN2C(=O)C12CC3CC(CC(C3)C1)C2 (stereo not drawn)	> 100	
Cl.Oc1ccc2c(c1)C1(c3ccccc3)CCN(CC3CCC3)C(C2)C1 (stereo in doubt; 145)		ED50 [1]: 2.8 mg/kg; ED50 [2]: 34 mg/kg
CC(C)O.CC1C2Cc3ccc(O)cc3C1(c1ccccc1)CCN2CC1CC1.Cl (stereo in doubt; 218)		ED50 [1]: >100 mg/kg
CC1C2Cc3ccc(OC(=O)c4ccc(F)cc4)cc3C1(c1ccccc1)CCN2C (stereo not drawn)	0.7	
Oc1ccc(C23CCNC(Cc4ccc(O)cc42)C3)cc1 (racemic)		Activity [3]: inactive
CC(C)O.Cl.Oc1ccc2c(c1)C1(c3ccccc3)CCN(CC3CC3)C(C2)C1 (stereo in doubt; 144)		ED50 [1]: >33 mg/kg
CC1C2Cc3ccc(O)cc3C1(c1ccccc1)CCN2CCC(C#N)(c1ccccc1)c1ccccc1 (stereo in doubt; 167)	110	ED50 [2, 5]: > 100 mg/kg
CC1C2Cc3ccc(OC(=O)c4ccccc4)cc3C1(c1ccccc1)CCN2C (stereo not drawn)	0.5	
CC1C2Cc3ccc(O)cc3C1(c1ccccc1)CCN2 (stereo in doubt; 112)		Activity [3]: inactive
CC1C2Cc3ccc(OC(=O)c4ccc([N+](=O)[O-])cc4)cc3C1(c1ccccc1)CCN2C (stereo not drawn)	0.6	
CC(C)O.Oc1ccc2c(c1)C1(c3ccccc3)CCNC(C2)C1 (stereo not drawn)	> 100	
Cl.O=C(CCCN1CCC2(c3ccccc3)CC1Cc1ccccc12)c1ccc(F)cc1 (racemic)		ED50 [2, 5]: > 150 mg/kg
CC1C2Cc3ccc(O)cc3C1(c1ccccc1)CCN2C1CCCC1.Cl (stereo not drawn)	120	
CC1C2Cc3ccc(O)cc3C1(c1ccccc1)CCN2CCC(c1ccccc1)c1ccccc1 (stereo in doubt; 166)		Activity [3]: inactive
CC1C2Cc3ccc(OC(=O)c4c(Cl)cccc4Cl)cc3C1(c1ccccc1)CCN2C (stereo not drawn)	> 100	
Br.CC1C2Cc3ccc(O)cc3C1(c1ccccc1)CCN2CC(=O)c1ccccc1 (stereo not drawn)	> 100	
CC(C)O.Cl.Oc1ccc2c(c1)C1(c3ccccc3)CCN(CC3CC3)C(C2)C1 (racemic)	33	ED50 [2, 5]: 107 mg/kg
CC1C2Cc3ccc(O)cc3C1(c1ccccc1)CCN2CCC(c1ccccc1)c1ccccc1 (stereo in doubt; 188)		Activity [3]: inactive
CC1C2Cc3ccc(O)cc3C1(c1ccccc1)CCN2CC1CCC1.Cl (stereo in doubt; 219)		ED50 [1]: 28 mg/kg; ED50 [2, 5]: 300 mg/kg
C#CCN1CCC2(c3ccccc3)c3cc(OC)ccc3CC1C2C (stereo not drawn)	> 100	
CN1CCC2(c3ccccc3)CC1Cc1ccc(O)cc12.Cl (stereo in doubt; 42)		ED50 [1]: 5.6 mg/kg

Compound	ED50 [1, 4] [mg/kg]	also measured
C=CCN1CCC2(c3ccccc3)CC1Cc1ccc(O)cc12 (racemic)		ED50 [1]: >100 mg/kg
CCCN1CCC2(c3ccccc3)c3cc(O)ccc3CC1C2C.Cl (stereo in doubt; 163)		ED50 [1]: 14 mg/kg; ED50 [2, 5]: > 100 mg/kg
CC(C)=CCN1CCC2(c3ccccc3)c3cc(OS(=O)(=O)c4ccc(C)cc4)ccc3CC1C2C (stereo not drawn)	> 100	
C=C(Br)CN1CCC2(c3ccccc3)CC1Cc1ccc(O)cc12 (racemic)	> 100	
CC(C)=CCN1CCC2(c3ccccc3)CC1Cc1ccc(O)cc12 (racemic)	15	
CC1C2Cc3ccc(O)cc3C1(c1ccccc1)CCN2CCc1cccs1.Cl.O (stereo not drawn)	> 100	ED50 [2, 5]: > 100 mg/kg
CC(C)=CCN1CCC2(c3ccccc3)c3cc(OC(=O)c4ccccc4)ccc3CC1C2C (stereo not drawn)	> 100	
CN1CCC2(c3ccccc3)CC1Cc1ccccc12.O=C(O)C(O)C(O)C(=O)O (stereo in doubt; 37)		ED50 [1]: 8 mg/kg
CN1CCC2(c3ccccc3)CC1Cc1ccc(O)cc12.Cl (stereo in doubt; 43)	5.5	
C[C@@H]1C2Cc3ccc(OS(C)(=O)=O)cc3C1(c1ccccc1)CCN2C (stereo partly drawn)	5.3	
CC1C2Cc3ccc(O)cc3C1(c1ccccc1)CCN2C(=O)C12CC3CC(CC(C3)C1)C2.O (stereo not drawn)		ED50 [2, 5]: > 100 mg/kg
CC1C2Cc3ccc(O)cc3C1(c1ccccc1)CCN2CC1CCC1.CS(=O)(=O)O (racemic)		ED50 [2, 5]: > 100 mg/kg
C/C(Cl)=C/CN1CCC2(c3ccccc3)CC1Cc1ccc(O)cc12 (racemic)	> 100	
Oc1ccc2c(c1)C1(c3ccccc3)CCNC(C2)C1 (racemic)	> 100	
COc1ccc2c(c1)C1(c3ccccc3)CCN(CC3CCC3)C(C2)C1.Cl.O (racemic)		ED50 [2, 5]: > 100 mg/kg
Cl.Oc1ccc2c(c1)C1(c3ccccc3)CCN(CCc3ccccc3)C(C2)C1 (stereo not drawn)	7.4	
COc1ccc2c(c1)C1(c3ccccc3)CCN(C)C(C2)C1.Cl.O (stereo not drawn)	16	
CC1C2Cc3ccc(O)cc3C1(c1ccccc1)CCN2CCCN(C)C (stereo not drawn)	> 120	
CCCCC(=O)Oc1ccc2c(c1)C1(c3ccccc3)CCN(CC3CCC3)C(C2)C1.Cl (racemic)		ED50 [2, 5]: > 100 mg/kg
CC1C2Cc3ccc(O)cc3C1(c1ccccc1)CCN2CCO (racemic)	44	ED50 [2, 5]: > 100 mg/kg
CC1C2Cc3ccc(O)cc3C1(c1ccccc1)CCN2C (stereo not drawn)	4.2	
Br.CC1C2Cc3ccc(O)cc3C1(c1ccccc1)CCN2CC1COc2ccccc2O1 (stereo not drawn)	84	ED50 [2, 5]: > 100 mg/kg

Compound	ED50 [1, 4] [mg/kg]	also measured
C=CCN1CCC2(c3ccccc3)CC1Cc1ccc(O)cc12 (stereo in doubt; 143)		ED50 [1]: >80 mg/kg
C#CCN1CCC2(c3ccccc3)CC1Cc1ccc(OC(=O)c3ccccc3)cc12 (racemic)	> 100	
CC(C)O.CC1C2Cc3ccc(O)cc3C1(c1ccccc1)CCN2CC1CC1.Cl (stereo in doubt; 170)	100	
Br.CC1C2Cc3ccc(O)cc3C1(c1ccccc1)CCN2CCC(c1ccccc1)c1ccccc1.O (stereo in doubt; 166)	> 100	
CC(C)=CCN1CCC2(c3ccccc3)c3cc(O)ccc3CC1C2C.Cl (stereo in doubt; 169)		ED50 [1]: 41 mg/kg
CCCCCN1CCC2(c3ccccc3)c3cc(O)ccc3CC1C2C (stereo not drawn)		ED50 [2, 5]: > 100 mg/kg
CS(=O)(=O)O.c1ccc(CCN2CCC3(c4ccccc4)CC2Cc2ccccc23)cc1 (stereo not drawn)	> 100	
COc1ccc2c(c1)C1(c3ccccc3)CCN(C)C(C2)C1 (racemic)	14	
C=CCN1CCC2(c3ccccc3)c3cc(O)ccc3CC1C2C.CCCO.Cl (stereo not drawn)	> 100	
Cc1ccc(S(=O)(=O)Oc2ccc3c(c2)C2(c4ccccc4)CCN(C)C(C3)C2C)cc1.Cl (stereo not drawn)	> 100	
Cl.Oc1ccc2c(c1)C1(c3ccccc3)CCN(CC3CCC3)C(C2)C1 (racemic)		ED50 [1]: 6.2 mg/kg; ED50 [2]: 124 mg/kg
C[C@@H]1C2Cc3ccc(O)cc3C1(c1ccccc1)CCN2C (stereo partly drawn)	0.5	
Cl.Oc1ccc2c(c1)C1(c3ccccc3)CCN(CC3CC3)C(C2)C1 (stereo not drawn)	15	
CC1C2Cc3ccc(O)cc3C1(c1ccccc1)CCN2CC1CCC1.Cl (stereo in doubt; 171)		ED50 [1]: >100 mg/kg
CC(=O)CCN1CCC2(c3ccccc3)c3cc(O)ccc3CC1[C@H]2C.CS(=O)(=O)O (stereo partly drawn)		ED50 [2, 5]: > 100 mg/kg
CC(C)=CCN1CCC2(c3ccccc3)c3cc(OC(=O)c4c(Cl)cccc4Cl)ccc3CC1C2C (stereo not drawn)	> 100	
CN1CCC2(c3ccccc3)CC1Cc1ccccc12.O=C(O)C(O)C(O)C(=O)O (stereo in doubt; 36)	5.5	
CCCN1CCC2(c3ccccc3)c3cc(O)ccc3CC1C2C.Cl (stereo in doubt; 173)		ED50 [1]: >100 mg/kg
C=CCN1CCC2(c3ccccc3)CC1Cc1ccc(O)cc12 (stereo in doubt; 146)		ED50 [1]: >30 mg/kg
C[C@@H]1C2Cc3ccc(O)cc3C1(c1ccccc1)CCN2CC(=O)O (stereo partly drawn)	> 100	
